Experimental data: patent US6177438A, “Morphinan derivatives and pharmaceutical use thereof” (priority 1993, dated 2001)
Where a name gives a salt, the structure may show the parent alone.

Assays:
[1] = test system: cultured nerve cells (cerebral cortex); test: cells; settings: Rattus norvegicus, Cerebral cortex neuron, 24 h, read-out: ED50 (protection against glutamic acid toxicity)
[2] = test system: cultured nerve cells (cerebral cortex); settings: 10 mM glutamic acid, 24 hours
[3] = test system: acetic acid-induced writhing in ddy mice; test: animal or person; format: in vivo, 5 week old ddy mice; settings: Mus musculus, sc, s.c. 15 minutes before acetic acid, read-out: ED50
Experimental: 5 week old ddy mice were used in this test. After intraperitoneal administration of 0.1 ml of 0.6% aqueous acetic acid per 10 g of body weight, the number of writhing reactions that occurred in 10 minutes starting 10 minutes after administration was evaluated for the indicator. The test drug was administered subcutaneously into the backs of the animals 15 minutes before administration of acetic acid.

[4] = Diuretic action (urine output for 5 hours after physiological saline loading in rats); format: in vivo, male Wistar rats; settings: Rattus norvegicus, sc, 5 hours after saline 20 ml/kg p.o.; for ED (200% urine output): dose giving urine output of 200 (non-dosed group = 100); for ED (500% urine output): dose giving urine output of 500 (non-dosed group = 100)
Summary of the method: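 Doses reported as ED200/ED500, i.e. those raising 5 h urine output to 200 or 500 versus undosed rats set at 100. Subcutaneous dosing preceded an oral 20 ml/kg saline load by 30 min; male Wistar rats, 7-8 weeks, deprived of water 1 h beforehand.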

κ receptor = biological target: T1, κ receptor (Mus musculus, UniProt P33534); test: Opioid activity test using an extracted mouse vas deferens preparation, Ke with norBNI; parameters: species or system male ddy mouse; settings: for receptor selectivity of agonist (κ): in words; for Ke, norBNI: κ, norBNI added
T1 construct: from tissue; host or cells: mouse (male ddy) vas deferens
T1 sequence (P33534 whole entry): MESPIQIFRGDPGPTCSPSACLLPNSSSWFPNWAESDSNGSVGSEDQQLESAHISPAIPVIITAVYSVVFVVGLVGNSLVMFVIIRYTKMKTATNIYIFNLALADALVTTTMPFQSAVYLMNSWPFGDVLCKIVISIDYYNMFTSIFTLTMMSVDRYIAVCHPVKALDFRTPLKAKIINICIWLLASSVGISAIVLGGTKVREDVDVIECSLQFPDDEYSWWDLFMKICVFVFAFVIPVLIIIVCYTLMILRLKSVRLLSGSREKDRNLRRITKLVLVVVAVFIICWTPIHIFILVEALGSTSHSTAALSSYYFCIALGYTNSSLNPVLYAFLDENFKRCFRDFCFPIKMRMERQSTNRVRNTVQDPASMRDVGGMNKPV

[5] = test system: extracted mouse vas deferens preparation; test: Opioid activity test using an extracted mouse vas deferens preparation (suppression of electrically induced contractions); parameters: species or system male ddy mouse; settings: electrical stimulus 0.1 Hz, 37° C.
Summary of the method: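 Male ddY mouse vas deferens in Krebs-Henseleit at 37° C, 5% CO2/95% O2, field-stimulated at 0.1 Hz, 5.0 ms; isometric contractions recorded. After adding naloxone, NTI or norBNI, test compound was added cumulatively after ~20 min; Ke derived from the difference in agonist efficacies.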

δ receptor = biological target: T2, δ receptor (Mus musculus, UniProt P32300); parameters: species or system male ddy mouse; settings: mouse vas deferens, δ, NTI added
T2 construct: The vas deferens extracted from the animal was suspended in a Magnus tube; from tissue; host or cells: mouse (male ddy) vas deferens
T2 sequence (P32300 whole entry): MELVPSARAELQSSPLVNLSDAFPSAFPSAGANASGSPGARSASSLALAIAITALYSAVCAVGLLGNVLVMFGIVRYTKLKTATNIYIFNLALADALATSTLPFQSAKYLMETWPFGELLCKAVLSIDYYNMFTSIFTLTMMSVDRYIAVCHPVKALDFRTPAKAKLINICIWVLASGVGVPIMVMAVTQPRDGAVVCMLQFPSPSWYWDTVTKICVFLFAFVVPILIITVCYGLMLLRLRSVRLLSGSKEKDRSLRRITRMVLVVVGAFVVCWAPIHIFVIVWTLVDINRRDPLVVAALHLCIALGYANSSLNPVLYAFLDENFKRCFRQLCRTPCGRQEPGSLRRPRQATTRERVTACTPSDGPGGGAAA

| Compound | EC50 [1] [nM] | Protective action against cytotoxicity caused by glutamic acid (in words) [2] | ED50 [3] [mg/kg] | ED (200% urine output) [4] [mg/kg] | ED (500% urine output) [4] [mg/kg] | receptor selectivity of agonist (κ) (κ receptor) | Ke, norBNI (κ receptor) [nM] | IC50 [5] [nM] | Ke, NTI (δ receptor) [nM] |
| --- | --- | --- | --- | --- | --- | --- | --- | --- | --- |
| CN(C(=O)Cc1cccc(C(F)(F)F)c1)[C@@H]1CC[C@@]2(O)[C@H]3Cc4ccc(O)c5c4[C@@]2(CCN3CC2CC2)[C@H]1O5 [Compound 116, 17-cyclopropylmethyl-3,14β-dihydroxy-4,5α-epoxy-6β-(N-methyl-3-trifluoromethylphenylacetamido)morphinan.cndot.hydrochloride] | 2370 | clearly demonstrated action that protects nerve cells from cytotoxicity caused by glutamic acid | – | – | – | – | – | – | – |
| CN(C(=O)Cc1ccccc1)[C@H]1CC[C@@]2(O)[C@H]3Cc4ccc(O)c5c4[C@@]2(CCN3CC2CC2)[C@H]1O5 [Compound 23, 17-cyclopropylmethyl-3,14β-dihydroxy-4,5α-epoxy-6α-(N-methylphenylacetamido)morphinan.cndot.hydrochloride] | 1610 | clearly demonstrated action that protects nerve cells from cytotoxicity caused by glutamic acid | 0.67 | – | – | – | – | – | – |
| CN(C(=O)OCc1ccccc1)[C@@H]1CC[C@@]2(O)[C@H]3Cc4ccc(O)c5c4[C@@]2(CCN3CC2CC2)[C@H]1O5 [Compound 56, 17-cyclopropylmethyl-3,14β-dihydroxy-4,5α-epoxy-6β-(N-methylbenzyloxycarbamido)morphinan.cndot.hydrochloride] | 5230 | clearly demonstrated action that protects nerve cells from cytotoxicity caused by glutamic acid | 0.00802 | 0.0028 | 0.0518 | – | – | – | – |
| O=C(Cc1ccc(Cl)c(Cl)c1)N[C@H]1CC[C@@]2(O)[C@H]3Cc4ccc(O)c5c4[C@@]2(CCN3CC2CC2)[C@H]1O5 [Compound 52, 17-cyclopropylmethyl-4,5α-epoxy-3,14β-dihydroxy-6α-(3,4-dichlorophenylacetoamido)morphinan.cndot.hydrochloride] | 1710 | clearly demonstrated action that protects nerve cells from cytotoxicity caused by glutamic acid | – | – | – | – | – | – | – |
| CN(CCc1ccc(Cl)c(Cl)c1)[C@@H]1CC[C@@]2(O)[C@H]3Cc4ccc(O)c5c4[C@@]2(CCN3CC2CC2)[C@H]1O5 [Compound 136, 17-Cyclopropylmethyl-3,14β-dihydroxy-4,5α-epoxy-6β-[N-methyl-N-2-(3,4-dichlorophenyl)ethylamino]morphinan.cndot.1.9 hydrochloride] | 640 | clearly demonstrated action that protects nerve cells from cytotoxicity caused by glutamic acid | – | – | – | – | – | – | – |
| CN(C(=O)CCCc1ccccc1)[C@H]1CC[C@@]2(O)[C@H]3Cc4ccc(O)c5c4[C@@]2(CCN3CC2CC2)[C@H]1O5 [Compound 35, 17-cyclopropylmethyl-3,14β-dihydroxy-4,5α-epoxy-6α-(N-methyl-4-phenylbutyramido)morphinan.cndot.hydrochloride] | 640 | clearly demonstrated action that protects nerve cells from cytotoxicity caused by glutamic acid | 0.026 | 0.0245 | 5.19 | – | – | – | – |
| CN(C(=O)COc1ccccc1)[C@@H]1CC[C@@]2(O)[C@H]3Cc4ccc(O)c5c4[C@@]2(CCN3CC2CC2)[C@H]1O5 [Compound 58, 17-cyclopropylmethyl-3,14β-dihydroxy-4,5α-epoxy-6β-(N-methylphenoxyacetamido)morphinan.cndot.tartrate] | 16700 | clearly demonstrated action that protects nerve cells from cytotoxicity caused by glutamic acid | 0.19 | – | – | – | – | – | – |
| CN(C(=O)Cc1cccc(C(F)(F)F)c1)[C@H]1CC[C@@]2(O)[C@H]3Cc4ccc(O)c5c4[C@@]2(CCN3CC2CC2)[C@H]1O5 [Compound 108, 17-cyclopropylmethyl-3,14β-dihydroxy-4,5α-epoxy-6α-(N-methyl-3-trifluoromethylphenylacetamido)morphinan.cndot.hydrochloride] | 250 | clearly demonstrated action that protects nerve cells from cytotoxicity caused by glutamic acid | 0.0064 | 0.021 | 5.11 | – | – | – | – |
| CN(C(=O)Cc1ccc(Cl)c(Cl)c1)[C@@H]1CC[C@@]2(O)[C@H]3Cc4ccc(O)c5c4[C@@]2(CCN3CC2CC2)[C@H]1O5 [Compound 53, 17-cyclopropylmethyl-4,5α-epoxy-3,14β-dihydroxy-6β-(N-methyl-3,4-dichlorophenylacetoamido)morphinan.cndot.hydrochloride] | 2510 | clearly demonstrated action that protects nerve cells from cytotoxicity caused by glutamic acid | 0.46 | 0.135 | 0.658 | selective agonists for κ receptors | 0.21 | 10.3 | 1676 |
| CN(C(=O)C1CCCCC1)[C@H]1CC[C@@]2(O)[C@H]3Cc4ccc(O)c5c4[C@@]2(CCN3CC2CC2)[C@H]1O5 [Compound 33, 17-cyclopropylmethyl-3,14β-dihydroxy-4,5α-epoxy-6α-(N-methylcyclohexylcarboxyamido)morphinan.cndot.hydrochloride] | 3530 | clearly demonstrated action that protects nerve cells from cytotoxicity caused by glutamic acid | 0.08 | – | – | – | – | – | – |
| CN(CCc1ccc(Cl)c(Cl)c1)[C@H]1CC[C@@]2(O)[C@H]3Cc4ccc(O)c5c4[C@@]2(CCN3CC2CC2)[C@H]1O5 [Compound 135, 17-Cyclopropylmethyl-3,14β-dihydroxy-4,5α-epoxy-6α-[N-methyl-N-2-(3,4-dichlorophenyl)ethylamino]morphinan.cndot.1.8 hydrochloride] | 290 | clearly demonstrated action that protects nerve cells from cytotoxicity caused by glutamic acid | – | – | – | – | – | – | – |
| CN(C(=O)CCc1ccccc1)[C@@H]1CC[C@@]2(O)[C@H]3Cc4ccc(O)c5c4[C@@]2(CCN3CC2CC2)[C@H]1O5 [Compound 57, 17-cyclopropylmethyl-3,14β-dihydroxy-4,5α-epoxy-6β-(N-methyl-3-phenylpropionamido)morphinan.cndot.hydrochloride] | 15300 | clearly demonstrated action that protects nerve cells from cytotoxicity caused by glutamic acid | 0.04 | 0.0424 | 1.26 | selective agonists for κ receptors | 0.0124 | 0.0254 | 747 |
| C[C@H](C(=O)N(C)[C@H]1CC[C@@]2(O)[C@H]3Cc4ccc(O)c5c4[C@@]2(CCN3CC2CC2)[C@H]1O5)c1ccccc1 [Compound 32, 17-cyclopropylmethyl-4,5α-epoxy-3,14β-dihydroxy-6α-[(S)-N-methyl-2-phenylpropionamido]morphinan.cndot.tartrate] | 2140 | clearly demonstrated action that protects nerve cells from cytotoxicity caused by glutamic acid | 0.29 | – | – | – | – | – | – |
| CN(C(=O)Cc1ccc2ccccc2c1)[C@@H]1CC[C@@]2(O)[C@H]3Cc4ccc(O)c5c4[C@@]2(CCN3CC2CC2)[C@H]1O5 [Compound 112, 17-cyclopropylmethyl-3,14β-dihydroxy-4,5α-epoxy-6β-(N-methyl-2-naphthylacetamido)morphinan.cndot.hydrochloride] | 4240 | clearly demonstrated action that protects nerve cells from cytotoxicity caused by glutamic acid | – | – | – | – | – | – | – |
| CN(C(=O)c1ccccc1)[C@H]1CC[C@@]2(O)[C@H]3Cc4ccc(O)c5c4[C@@]2(CCN3CC2CC2)[C@H]1O5 [Compound 34, 17-cyclopropylmethyl-3,14β-dihydroxy-4,5α-epoxy-6α-(N-methylbenzamido)morphinan.cndot.hydrochloride] | 180 | clearly demonstrated action that protects nerve cells from cytotoxicity caused by glutamic acid | 0.21 | – | – | – | – | – | – |
